Measurements published in US20200001120A1, “APPARATUS, METHOD, AND USE FOR ULTRASOUND MEDIATED MICROBUBBLE DELIVERY OF PHARMACEUTICAL COMPOSITIONS” (priority 2017, published 2020).

Tested on: E. coli
Test: E. coli pneumonia in mice: gentamicin with or without USMB, cfu in lung homogenates
Type: in vivo, C57BL/6 mice
Protocol: To establish whether USMB enhances antibiotic delivery to the injured lung, gentamicin (1.5 mg/kg) was administered to mice by intraperitoneal injection 6 hours after infection with E. coli to determine whether USMB conferred any additional benefit to treatment with antibiotics or microbubbles alone. This relatively low dose of gentamicin was chosen as it is relatively slow and achieves incomplete clearance of lung pathogens and thus allows any benefit of USMB to become apparent. In humans, high doses of gentamicin are known to cause nephro- and ototoxicity, making it contraindicated for human use at high doses.
C57BL/6 mice were infected intratracheally with 1×10^7 colony forming units (cfu) of E. coli and received 1.5 mg/kg of gentamicin by intraperitoneal injection 6 hours later. Thirty minutes later, the mice were then injected intravenously with 1×10^9 microbubbles (Definity™) by tail vein. (Definity™ is an approved microbubble preparation that is used for diagnostic imaging in intensive care unit patients.) This was followed by thoracic ultrasound administration for five minutes. The ultrasound treatment conditions were the same as those used in Example 1. Eighteen hours later, mice were euthanized by cervical dislocation and lungs were homogenized for cfu. Lung homogenates were plated on agar to measure bacterial growth. Each experiment was repeated twice with 3 mice per group. Control mice received microbubbles and antibiotic without ultrasound (MB+ antibiotics) or antibiotics alone (PBS and antibiotics). Other control mice received no antibiotics. […] Data are mean plus SEM (SD if <3 mice) with each dot representing a separate animal. Note the >1 log-fold reduction in cfu in the mice receiving USMB with antibiotics (left-most group) compared to microbubbles/antibiotics alone. An ELISA performed on lung homogenates and plasma measures gentamicin levels.

gentamicin
reduction in cfu in lung homogenates (gentamicin 1.5 mg/kg i.p. plus USMB vs microbubbles/antibiotics alone, 18 hours later): > 1 log-fold
reduction in bacterial growth caused by USMB (gentamicin 1.5 mg/kg i.p. plus USMB, both replicates): 10 fold
bacterial colony forming units (cfu) (gentamicin alone, 1.5 mg/kg i.p.): reduction
benefit over antibiotics alone (microbubbles and antibiotics without ultrasound): no benefit
